Growth inhibition data for 39 compounds are collected here from PubChem BioAssay AID504646 (Southern Research Specialized Biocontainment Screening …, 2011).

The source made the active and inactive calls. No rule for the calls is given here.

A short description of the assay: M. tuberculosis growth inhibition in 7H9, dose response, 7H9 media, purified and synthesized samples, set 3 (AID 504646). Conditions: Mycobacterium tuberculosis growth in 7H9 media; at 25 µM (top of the series).
Take `Cc1c[nH]c(=S)[nH]c1=O`: the growth inhibition was -6.2% (inactive).

With `O=C(C1CCC(CNc2c(N3CCCCC3)c(=O)c2=O)CC1)N1CCCCC1` (centres undefined), the growth inhibition is -2.59% (inactive).

As for `CCCc1cc(=O)[nH]c(SCC(=O)Nc2cc3c(cc2C(C)=O)OCO3)n1`, the growth inhibition was 3.07% (inactive).

As to `Nc1cc(=O)[nH]c(SCC(=O)Nc2ccccc2-c2ccccc2)n1`, the growth inhibition was -1.58% (inactive).

Turning to `O=C(CSc1ccccn1)NC1CCCCC1`, the growth inhibition is -4.91% (inactive).

Regarding `Cc1cc(=O)[nH]c(=S)[nH]1`, the growth inhibition is -1.28% (inactive).

`CCC(Sc1nc(=O)cc(N)n1-c1ccccc1)C(=O)Nc1cc(C)on1` (centres undefined): the growth inhibition is -3.83% (inactive).

As for `Cc1cc(C)cc(NC(=O)CSc2nc3c(c(=O)[nH]2)CN(Cc2ccc(F)cc2)CC3)c1`, the growth inhibition is -0.33% (inactive).

Regarding `Nc1cc(=O)[nH]c(SCC(=O)Nc2ccc(Oc3ccccc3)cc2)n1`, the growth inhibition was -0.36% (inactive).

Take `COC(=O)C(Nc1nc(SCC(=O)NC2CCCCC2)nc2ccccc12)c1ccccc1` (centres undefined): the growth inhibition was -0.22% (inactive).

As to `Cc1nc(SCc2ccccc2Cl)[nH]c(=O)c1C`, the growth inhibition was -6.95% (inactive).

On to `O=c1[nH]c(=S)[nH]c2ccccc12`, for which the growth inhibition is -8.06% (inactive).

With `CCOC(=O)N1CCC(Nc2c(N3CCN(c4cccc(C(F)(F)F)c4)CC3)c(=O)c2=O)CC1`, the growth inhibition is -1.75% (inactive).

In the case of `Cc1ccc(NC(=O)CSc2nc(N)cc(=O)[nH]2)cc1Cl`, the growth inhibition is 2.55% (inactive).

Consider `CCOC(=O)C(CC)Sc1ncnc2c1nnn2-c1ccc(F)cc1` (centres undefined), for which the growth inhibition was 12.2% (inactive).

With `CC(NC(=O)CSc1nc2ccccc2c(=O)[nH]1)c1ccccc1` (centres undefined), the growth inhibition is -9.84% (inactive).

Turning to `COC(=O)c1ccc(CNc2c(N3CCCC3)c(=O)c2=O)cc1`, the growth inhibition is -13.4% (inactive).

For `CCSc1nc2ccccc2c(=O)[nH]1`, the growth inhibition was -4.76% (inactive).

For the compound `CCOc1ccc(NC(=O)c2ccc(CNc3c(N4CCCC4)c(=O)c3=O)cc2)cc1`, the growth inhibition was 0.32% (inactive).

`CC1CCN(C(=O)CSc2nc3ccccc3c(=O)[nH]2)CC1`: the growth inhibition was 2.14% (inactive).

Regarding `Cc1[nH]c2ccccc2c1C(=O)COC(=O)c1ccc([N+](=O)[O-])s1`, the growth inhibition was -5.99% (inactive).

For `COc1ccc(NC(=O)CSc2nc(NS(=O)(=O)c3ccc(C)cc3)cc(=O)[nH]2)cc1`, the growth inhibition is 1.44% (inactive).

Turning to `CCOC(=O)CSc1nc(C)c(C)c(=O)[nH]1`, the growth inhibition is -7.78% (inactive).

Consider `Oc1ccccc1/C=N/Nc1ccnc(SCc2ccccc2)n1`, for which the growth inhibition was 2.73% (inactive).

For `Cc1nc(SCC(=O)N(C)c2ccccc2)[nH]c(=O)c1C`, the growth inhibition is -13.6% (inactive).

For the compound `Cc1nc(SCC(N)=O)[nH]c(=O)c1C`, the growth inhibition was -2.97% (inactive).

As for `C=CCn1c(SCC(=O)Nc2cccc3ccccc23)nc(O)c(CC)c1=O`, the growth inhibition is 26.9% (inactive).

For `CCc1cc(=O)[nH]c(SCC(=O)Nc2ccc3c(c2)OCCO3)n1`, the growth inhibition is 3.59% (inactive).

With `Cc1ccc(NC(=O)CSc2nc(N)c(-c3ccccc3)c(=O)[nH]2)cc1Cl`, the growth inhibition is -2.34% (inactive).

Consider `CCOC(=O)N1CCC(Nc2c(Nc3cccc(CC)c3)c(=O)c2=O)CC1`, for which the growth inhibition is 17.3% (inactive).

Take `CCc1c(O)nc(SCC(=O)Nc2ccc(OC)cc2)n(C2CCCCC2)c1=O`: the growth inhibition is -2.19% (inactive).

In the case of `O=C(CSc1ncccn1)NC1CCCCC1`, the growth inhibition is -5.77% (inactive).

Consider `COc1ccc(-c2noc(CSc3nc(N)c(-c4ccccc4)c(=O)[nH]3)n2)cc1OC`, for which the growth inhibition is -5.09% (inactive).

For `CCOc1ccc2nc(NC(=O)C(CC)Sc3nc(C)cc(=O)[nH]3)sc2c1` (centres undefined), the growth inhibition was 2.52% (inactive).

`Cc1[nH]c(=S)[nH]c(=O)c1C`: the growth inhibition was -8.11% (inactive).

As for `CCSc1nc(C)c(C)c(=O)[nH]1`, the growth inhibition was 1.07% (inactive).

On to `CN(C(=O)CSc1nc2ccccc2c(=O)[nH]1)C1CCCCC1`, for which the growth inhibition is -6.94% (inactive).

`CCOc1ccc(NC(=O)CSc2nc(N)c(-c3ccccc3)c(=O)[nH]2)cc1`: the growth inhibition was 0.19% (inactive).

Consider `Cc1cc(=O)[nH]c(SCC(=O)Nc2ncc(S(=O)(=O)c3ccc([N+](=O)[O-])cc3)s2)n1`, for which the growth inhibition is -1.38% (inactive).
